Data reported in patent US20260240163A1, “HERBICIDAL COMBINATIONS AND A METHOD FOR CONTROLLING UNDESIRED VEGETATION” (UPL Mauritius Limited, priority 2022, published 2026).

System: Euphorbia heterophylla
Test: Post-emergence herbicidal efficacy trials; expected efficacy by Colby method
Format: in vivo
Settings: for Observed efficacy (%) of L-glufosinate ammonium (150 g a.i./ha): Table 11
Procedure: Methodology: Trials were conducted to evaluate the efficacy of the combinations comprising L-glufosinate ammonium and the additional herbicides on Euphorbia genus weeds.
The soil used was sandy clay loam-sand: 68.0%; silt: 8.0%; clay: 24.0%.
All treatments were in 4 replications per treatment with a spray volume of about 150 L/ha.
Efficacy Evaluation: The expected efficacy of the combination comprising L-glufosinate ammonium and additional herbicides was calculated using the well-established Colby method.
In the Colby method, the expected (or predicted) response of a combination of herbicides is calculated by taking the product of the observed response for each individual component of the combination when applied alone, divided by 100, and subtracting this value from the sum of the observed response for each component when applied alone. An unexpected enhancement in efficacy of the combination is then determined by comparing the observed response of the combination to the expected (or predicted) response as calculated from the observed response of each individual component alone. If the observed response of the combination is greater than the expected (or predicted) response, or stated conversely, if the difference between the observed and expected response is greater than zero, then the combination is said to be synergistic or unexpectedly effective (Colby, S. R., Weeds, 1967 (15), p. 20-22). The Colby method requires only a single dose of each herbicide applied alone and the mixture of both doses. The formula used to calculate the expected efficacy (EE) which was compared with the observed efficacy (OE) to determine the efficacy of the present disclosure is explained hereinbelow:
The expected efficacy for a combination of two active ingredients is as follows:
wherein, • A=Observed efficacy of active ingredient A at the same concentration as used in the mixture. • B=Observed efficacy of the active ingredient B at the same concentration as used in the mixture.

C[N+](C)(C)CCO.O=C([O-])COc1ccc(Cl)cc1Cl [2,4-D choline, 2,4-dichlorophenoxyacetic acid (2,4-D) choline]
Observed efficacy (%) of 2,4-D choline (228 g a.i./ha) (14 DAA): 30%
Observed efficacy (%) of 2,4-D choline (228 g a.i./ha) (21 DAA): 30%

COc1c(Cl)ccc(Cl)c1C(=O)O [Dicamba]
Observed efficacy (%) of Dicamba (228 g a.i./ha) (7 DAA): 45%
Observed efficacy (%) of Dicamba (228 g a.i./ha) (14 DAA): 40%

COc1c(Cl)ccc(-c2nc(C(=O)OCc3ccccc3)c(Cl)c(N)c2F)c1F [Florpyrauxifen-benzyl]
Observed efficacy (%) of Florpyrauxifen-benzyl (15 g a.i./ha) (7 DAA): 65%
Observed efficacy (%) of Florpyrauxifen-benzyl (15 g a.i./ha) (14 DAA): 90%

CP(=O)(O)CC[C@H](N)C(=O)O.N [L-glufosinate ammonium]
Observed efficacy (%) of L-glufosinate ammonium (Glufosinate-P-ammonium) (150 g a.i./ha) (7 DAA, Table 6): 95%
Observed efficacy (%) of L-glufosinate ammonium (Glufosinate-P-ammonium) (150 g a.i./ha) (7 DAA, Table 7): 95%
Observed efficacy (%) of L-glufosinate ammonium (Glufosinate-P-ammonium) (150 g a.i./ha) (7 DAA, Table 8): 95%
Observed efficacy (%) of L-glufosinate ammonium (Glufosinate-P-ammonium) (150 g a.i./ha) (7 DAA, Table 9): 95%
Observed efficacy (%) of L-glufosinate ammonium (Glufosinate-P-ammonium) (150 g a.i./ha) (7 DAA, Table 10): 95%
Observed efficacy (%) of L-glufosinate ammonium (Glufosinate-P-ammonium) (150 g a.i./ha) (14 DAA, Table 6): 98%
Observed efficacy (%) of L-glufosinate ammonium (Glufosinate-P-ammonium) (150 g a.i./ha) (14 DAA, Table 7): 98%
Observed efficacy (%) of L-glufosinate ammonium (Glufosinate-P-ammonium) (150 g a.i./ha) (14 DAA, Table 9): 93.5%
Observed efficacy (%) of L-glufosinate ammonium (Glufosinate-P-ammonium) (150 g a.i./ha) (14 DAA, Table 10): 93.5%
Observed efficacy (%) of L-glufosinate ammonium (150 g a.i./ha) (14 DAA): 98%
Observed efficacy (%) of L-glufosinate ammonium (Glufosinate-P-ammonium) (150 g a.i./ha) (21 DAA, Table 9): 88.8%
Observed efficacy (%) of L-glufosinate ammonium (Glufosinate-P-ammonium) (150 g a.i./ha) (21 DAA, Table 10): 88.8%
Observed efficacy (%) of L-glufosinate ammonium (150 g a.i./ha) (21 DAA): 98%
Observed efficacy (%) of L-glufosinate ammonium (Glufosinate-P-ammonium) (150 g a.i./ha) (28 DAA, Table 9): 93.1%
Observed efficacy (%) of L-glufosinate ammonium (Glufosinate-P-ammonium) (150 g a.i./ha) (28 DAA, Table 10): 93.1%

CSc1nnc(C(C)(C)C)c(=O)n1N [Metribuzin]
Observed efficacy (%) of Metribuzin (360 g a.i./ha) (7 DAA): 41.9%
Observed efficacy (%) of Metribuzin (360 g a.i./ha) (14 DAA): 38.1%
Observed efficacy (%) of Metribuzin (360 g a.i./ha) (21 DAA): 29.4%
Observed efficacy (%) of Metribuzin (360 g a.i./ha) (28 DAA): 12.5%

CCN(CC)C(=O)C(C)Oc1cccc2ccccc12 (stereo not drawn) [Napropamide]
Observed efficacy (%) of Napropamide (675 g a.i./ha) (7 DAA): 20%
Observed efficacy (%) of Napropamide (675 g a.i./ha) (14 DAA): 10%
Observed efficacy (%) of Napropamide (675 g a.i./ha) (21 DAA): 0%
Observed efficacy (%) of Napropamide (675 g a.i./ha) (28 DAA): 0%

CCOc1cc(Oc2ccc(C(F)(F)F)cc2Cl)ccc1[N+](=O)[O-] [Oxyfluorfen]
Observed efficacy (%) of Oxyfluorfen (430 g a.i./ha) (430 g a.i./ha, 7 DAA): 75%
